Data published in patent publication US8268781B2.
Read-outs that look alike come from different tables or passages of the source.

Assay: Ex vivo bio-distribution studies
Settings: In-111 labeled, 555 kBq tail vein, mean of 4 mice; for tissue uptake at 1 h / tissue uptake at 4 h / tissue uptake at 24 h: mouse, iv, total radioactivity; for tissue uptake at 1 h: 1 h p.i.
Method: The in vivo bio-distribution can, for example, be shown in rodents such as hairless mice. For this purpose […] CHO cells are injected into hairless mice. After approx. 3 to 5 weeks tumors approx. 300 mg in size had grown.
1, 4 und 24 h p.i. all the mice are killed and their organs removed.
The uptake of radioactivity is measured and the organs are weighed. The % of injected dose program of organ weight is calculated.
Mean value from the bio-distribution with 4 mice pro group in % i.D./g Stadev: standard deviation.

Uptake in Blood (4 h p.i.): 0.00 % i.D./g
Uptake in Muscle (4 h p.i.): 0.00 % i.D./g
Uptake in Blood (24 h p.i.): 0.00 % i.D./g
Uptake in Heart (24 h p.i.): 0.00 % i.D./g
Uptake in Muscle (24 h p.i.): 0.00 % i.D./g
tissue uptake at 1 h (hairless mice, pancreas, read-out: Uptake in Pancreas): 0.58 %ID/g
tissue uptake at 4 h (hairless mice, pancreas, 4 h p.i., read-out: Uptake in Pancreas): 0.62 %ID/g
tissue uptake at 1 h (hairless mice, spleen, read-out: Uptake in Spleen): 0.02 %ID/g
tissue uptake at 4 h (hairless mice, spleen, 4 h p.i., read-out: Uptake in Spleen): 0.01 %ID/g
tissue uptake at 24 h (hairless mice, spleen, 24 h p.i., read-out: Uptake in Spleen): 0.01 %ID/g
tissue uptake at 1 h (hairless mice, stomach, read-out: Uptake in Stomach): 0.14 %ID/g
tissue uptake at 4 h (hairless mice, stomach, 4 h p.i., read-out: Uptake in Stomach): 0.13 %ID/g
tissue uptake at 24 h (hairless mice, stomach, 24 h p.i., read-out: Uptake in Stomach): 0.07 %ID/g
tissue uptake at 24 h (hairless, GLP-1 receptor negative tumor, 24 h p.i., read-out: Uptake in Tumor− (GLP-1 receptor negative tumor)): 0.01 %ID/g
tissue uptake at 1 h (hairless, GLP-1 receptor positive tumor, read-out: Uptake in Tumor+ (GLP-1 receptor positive tumor)): 0.42 %ID/g
tissue uptake at 4 h (hairless, GLP-1 receptor positive tumor, 4 h p.i., read-out: Uptake in Tumor+ (GLP-1 receptor positive tumor)): 0.31 %ID/g
tissue uptake at 24 h (hairless, GLP-1 receptor positive tumor, 24 h p.i., read-out: Uptake in Tumor+ (GLP-1 receptor positive tumor)): 0.2 %ID/g
tissue uptake at 1 h (hairless, blood, read-out: Uptake in Blood): 0.01 %ID/g
tissue uptake at 1 h (hairless, liver, read-out: Uptake in Liver): 0.03 %ID/g
tissue uptake at 4 h (hairless, liver, 4 h p.i., read-out: Uptake in Liver): 0.01 %ID/g
tissue uptake at 24 h (hairless, liver, 24 h p.i., read-out: Uptake in Liver): 0.01 %ID/g
tissue uptake at 1 h (GLP-1 receptor negative tumor, read-out: Uptake in Tumor− (GLP-1 receptor negative tumor)): 0.03 %ID/g
tissue uptake at 4 h (GLP-1 receptor negative tumor, 4 h p.i., read-out: Uptake in Tumor− (GLP-1 receptor negative tumor)): 0.02 %ID/g
tissue uptake at 1 h (bones, read-out: Uptake in Bones): 0.02 %ID/g
tissue uptake at 4 h (bones, 4 h p.i., read-out: Uptake in Bones): 0.01 %ID/g
tissue uptake at 24 h (bones, 24 h p.i., read-out: Uptake in Bones): 0.01 %ID/g
tissue uptake at 1 h (heart, read-out: Uptake in Heart): 0.02 %ID/g
tissue uptake at 4 h (heart, 4 h p.i., read-out: Uptake in Heart): 0.01 %ID/g
tissue uptake at 1 h (intestine, read-out: Uptake in Intestine): 0.12 %ID/g
tissue uptake at 4 h (intestine, 4 h p.i., read-out: Uptake in Intestine): 0.07 %ID/g
tissue uptake at 24 h (intestine, 24 h p.i., read-out: Uptake in Intestine): 0.04 %ID/g
tissue uptake at 1 h (kidneys, read-out: Uptake in Kidneys): 7.9 %ID/g
tissue uptake at 4 h (kidneys, 4 h p.i., read-out: Uptake in Kidneys): 7.41 %ID/g
tissue uptake at 24 h (kidneys, 24 h p.i., read-out: Uptake in Kidneys): 4.85 %ID/g
tissue uptake at 1 h (lungs, read-out: Uptake in Lungs): 0.8 %ID/g
tissue uptake at 4 h (lungs, 4 h p.i., read-out: Uptake in Lungs): 0.36 %ID/g
tissue uptake at 24 h (lungs, 24 h p.i., read-out: Uptake in Lungs): 0.22 %ID/g
tissue uptake at 1 h (muscle, read-out: Uptake in Muscle): 0.01 %ID/g
tissue uptake at 24 h (pancreas, 24 h p.i., read-out: Uptake in Pancreas): 0.37 %ID/g
SMILES: CC[C@H](C)[C@H](NC(=O)[C@H](Cc1ccccc1)NC(=O)[C@H](CCC(=O)O)NC(=O)[C@H](CCCCN)NC(=O)[C@H](C)NC(=O)[C@H](C)NC(=O)[C@H](CCC(N)=O)NC(=O)CNC(=O)[C@H](CCC(=O)O)NC(=O)[C@H](CC(C)C)NC(=O)[C@H](Cc1ccc(O)cc1)NC(=O)[C@H](CO)NC(=O)[C@H](CO)NC(=O)[C@@H](NC(=O)[C@H](CC(=O)O)NC(=O)[C@H](CO)NC(=O)[C@@H](NC(=O)[C@H](Cc1ccccc1)NC(=O)[C@@H](NC(=O)CNC(=O)[C@H](CCC(=O)O)NC(=O)[C@H](C)NC(=O)[C@@H](N)Cc1c[nH]cn1)[C@@H](C)O)[C@@H](C)O)C(C)C)C(=O)N[C@@H](C)C(=O)N[C@@H](Cc1c[nH]c2ccccc12)C(=O)N[C@@H](CC(C)C)C(=O)N[C@H](C(=O)N[C@@H](CCCCN)C(=O)NCC(=O)N[C@@H](CCCNC(=N)N)C(=O)N[C@@H](CCCCNC(=O)CN(CCN(CCN(CC(=O)O)CC(=O)O)CC(=O)O)CC(=O)O)C(N)=O)C(C)C [MC10, (DTPA-Lys^37) GLP1 (7-36) amide]
